Results on 4 compounds are retold here after patent publication US20060094682A1, “Kinase inhibitors for the treatment of diabetes and obesity” (Odyssey Thera, Inc., priority 2004, published 2006).

Experiment [1] relates to PPAR-[Gamma]:SRC-1 complexes. Description: PPAR-[Gamma]:SRC-1 fluorescence protein-fragment complementation assay (PCA), drug treatment. It is filed as cell-based, human. To be noted: HEK293 cells; for effect on PPAR-[Gamma]:SRC-1 complex: 10 micromolar PP3 or 1 micromolar PD 153035 for 6.5 hours prior to rosiglitazone for 1.5 hours. The text has this:
Reporter fragments for PCA were generated by oligonucleotide synthesis (Blue Heron Biotechnology, Bothell, Wash.). First, oligonucleotides coding for polypeptide fragments YFP[1]and YFP[2] […] Next, PCR mutagenesis was used to generate the mutant fragments IFP[1] and IFP[2]. […] The YFP[1], YFP[2], IFP[1] and IFP[2] fragments were amplified by PCR to incorporate restriction sites and a linker sequence, described below, in configurations that would allow fusion of a gene of interest to either the 5′- or 3′-end of each reporter fragment. […] Additionally, these vectors still retain the SV40 origin, allowing for episomal expression in cell lines expressing the SV40 large T antigen (e.g. HEK293T, Jurkat or COS).
Recombinants in the host strains DH5-alpha (Invitrogen, Carlsbad, Calif.) or XL1 Blue MR (Stratagene, La Jolla, Calif.) were screened by colony PCR, and clones containing inserts of the correct size were subjected to end sequencing to confirm the presence of the gene of interest and in-frame fusion to the appropriate reporter fragment. A subset of fusion constructs were selected for full-insert sequencing by primer walking. DNAs were isolated using Qiagen MaxiPrep kits (Qiagen, Chatsworth, Calif.). PCR was used to assess the integrity of each fusion construct, by combining the appropriate gene-specific primer with a reporter-specific primer to confirm that the correct gene-fusion was present and of the correct size with no internal deletions.
HEK293 cells were maintained in MEM alpha medium (Invitrogen) supplemented with 10% FBS (Gemini Bio-Products), 1% penicillin, and 1% streptomycin, and grown in a 37° C. incubator equilibrated to 5% CO2.

For the next experiment, the system named is Src family kinases. To be noted: cited from earlier work.
A further experiment concerns human T cells. To be noted: read-out: IC50 anti-CD3-stimulated tyrosine phosphorylation of human T cells; cited from earlier work.
The next experiment has as its target Hck (Homo sapiens, UniProt P08631). The following applies: cited from earlier work.

Hck, sequence (P08631 whole entry, species assumed): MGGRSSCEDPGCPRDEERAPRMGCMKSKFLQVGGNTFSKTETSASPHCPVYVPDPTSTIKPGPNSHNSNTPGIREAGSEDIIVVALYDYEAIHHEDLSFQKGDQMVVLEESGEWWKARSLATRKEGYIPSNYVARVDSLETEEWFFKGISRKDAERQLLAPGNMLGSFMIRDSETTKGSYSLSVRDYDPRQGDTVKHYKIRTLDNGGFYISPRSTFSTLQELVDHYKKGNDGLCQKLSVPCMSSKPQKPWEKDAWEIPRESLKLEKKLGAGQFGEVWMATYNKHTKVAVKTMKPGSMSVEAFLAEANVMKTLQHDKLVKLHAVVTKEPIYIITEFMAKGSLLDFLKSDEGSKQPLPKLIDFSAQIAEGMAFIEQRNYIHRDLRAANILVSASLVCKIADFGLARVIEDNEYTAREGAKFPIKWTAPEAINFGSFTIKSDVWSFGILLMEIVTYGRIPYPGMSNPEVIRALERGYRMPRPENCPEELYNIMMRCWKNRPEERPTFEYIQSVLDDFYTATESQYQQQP

For the compound `Nc1ncnc2c1cnn2-c1ccccc1` [PP3, 4-Amino-7-phenylpyrazol[3,4-d]pyrimidine], the “effect on PPAR-[Gamma]:SRC-1 complex” value in experiment [1] is recorded as “no effect”. Moreover, the “activity against Src family kinases” value with Src family kinases was “inactive”.

For “4-amino-5-(4-chlorophenyl)-7-(t-butyl)pyrazolo[3,4-d]pyrimidine [PP2]”, the half-inhibitory concentration (IC50) (as a rule, the concentration needed to halve the response being measured) with human T cells is 600 nM; at Hck, 5 nM.

Turning to `CN(CCOc1ccc(CC2SC(=O)NC2=O)cc1)c1ccccn1` (stereo not drawn) [rosiglitazone], in experiment [1] (15 micromolar rosiglitazone for 90 minutes vs unstimulated), the “increase of fluorescence intensity of the PPAR-[Gamma]:SRC-1 PCA” value amounted to 6 fold.

For the compound `COc1cc2ncnc(Nc3cccc(Br)c3)c2cc1OC` [PD153035, 4-[(3-Bromophenyl)amino]-6,7-dimethoxyquinazoline], the “effect on PPAR-[Gamma]:SRC-1 complex” value in experiment [1] is “no effect”.
